Reference: patent publication US20150087686A1, “CRYSTALLINE FORMS OF SAXAGLIPTIN” (priority 2012, published 2015)
Where a name gives a salt, the structure may show the parent alone. Blank lines part the entries; values can stand above or below the molecule they belong to.

Assays:
Assay type in all cases: physicochemical
[1] = Crystalline stability at 60° C.-37% RH (XRPD); details: stored at 60° C. with 37% RH
Procedure: Crystalline and chemical stability at 60° C.-37% RH: saxagliptin crystalline form I and the known saxagliptin crystalline forms H-1, H2-1 were stored at 60° C. with 37% relative humidity (RH). The samples were analyzed by XRPD and HPLC-MS to check crystalline transformation and chemical degradation. […] However, chemical degradations were observed (see Table 6 below).
(§1) Crystalline and chemical stability at 60° C.—37% RH: Saxagliptin crystalline forms H-1, H2-1 and A were stored at 60° C. with 37% RH. The samples were analyzed by XRPD and HPLC-MS to check crystalline transformation and chemical degradation.

[2] = Chemical stability at 60° C.-37% RH (amidine impurities by HPLC-MS); details: for Color of the solid form after storage: after 1 week
Procedure: Crystalline and chemical stability at 60° C.-37% RH: saxagliptin crystalline form I and the known saxagliptin crystalline forms H-1, H2-1 were stored at 60° C. with 37% relative humidity (RH). The samples were analyzed by XRPD and HPLC-MS to check crystalline transformation and chemical degradation.
as §1

[3] = Solubility and stability in water at room temperature; details: for Solubility in water: volumes of water in which the form is soluble / Solubility in water compared with saxagliptin HCl dihydrate H2-1: room temperature
[4] = Crystal form stability at room temperature (transformation to H2-1); details: H0.75-3: after one night
Text: WO20100115974 discloses three forms of saxagliptin hydrochloride (I-S, HT-S, IV-S) but with a water content of not more than 1.5% by weight. […] On the other hand, the saxagliptin hydrochloride dihydrate H2-1 is stable. Unfortunately, it is difficult to prepare it in pure form by an industrial process which could be reproducible at industrial scale.

Δ variation amidine Impurity % (HPLC-MS), impurity (A) ([2]; 16 h (Table 6)): 0.64% (A) | Δ variation amidine Impurities A and B % (HPLC-MS), impurity (A) ([2]; 16 h (Table 7)): 0.6% (A) | Δ variation amidine Impurity % (HPLC-MS), impurity (A) ([2]; 168 h (Table 6)): 2.68% | Δ variation amidine Impurity % (HPLC-MS), impurity (B) ([2]; 168 h (Table 6)): 2.21% | Δ variation amidine Impurities A and B % (HPLC-MS), impurity (A) ([2]; 168 h (Table 7)): 2.7% | Δ variation amidine Impurities A and B % (HPLC-MS), impurity (B) ([2]; 168 h (Table 7)): 2.2% | Δ variation amidine Impurity % (HPLC-MS), impurity (A) ([2]; 184 h (Table 6)): 2.86% (A) + | Δ variation amidine Impurity % (HPLC-MS), impurity (B) ([2]; 184 h (Table 6)): 2.33% (B) | Color of the solid form after storage [2]: became yellowish
Molecule: N#C[C@@H]1C[C@@H]2C[C@@H]2N1C(=O)[C@@H](N)C12CC3CC(CC(O)(C3)C1)C2 [Form H-1, (1S,3S,5S)-2-[(2S)-2-amino-2-(3-hydroxy-1-adamantyl)acetyl]-2-azabicyclo[3.1.0]hexane-3-carbonitrile]
Crystalline transformation (XRPD) [1]: No crystalline transformations were observed

Molecule: N#C[C@@H]1C[C@@H]2C[C@@H]2N1C(=O)[C@@H](N)C12CC3CC(CC(O)(C3)C1)C2 [Form H2-1, saxagliptin hydrochloride dihydrate, reference compound]
Solubility in water: volumes of water in which the form is soluble [3]: 5 volumes of water | Crystal form stability (transformation to saxagliptin hydrochloride dihydrate H2-1) ([4]; hydrochloride dihydrate): stable

Molecule: N#C[C@@H]1C[C@@H]2C[C@@H]2N1C(=O)[C@@H](N)C12CC3CC(CC(O)(C3)C1)C2 [I-S, saxagliptin hydrochloride]
Crystal form stability (transformation to saxagliptin hydrochloride dihydrate H2-1) ([4]; hydrochloride): not very stable

Molecule: N#C[C@@H]1C[C@@H]2C[C@@H]2N1C(=O)[C@@H](N)C12CC3CC(CC(O)(C3)C1)C2 [HT-S, saxagliptin hydrochloride]
Crystal form stability (transformation to saxagliptin hydrochloride dihydrate H2-1) ([4]; hydrochloride): not very stable

Molecule: N#C[C@@H]1C[C@@H]2C[C@@H]2N1C(=O)[C@@H](N)C12CC3CC(CC(O)(C3)C1)C2 [Form P-5, saxagliptin hydrochloride]
Crystal form stability (transformation to saxagliptin hydrochloride dihydrate H2-1) ([4]; hydrochloride): not very stable

Molecule: N#C[C@@H]1C[C@@H]2C[C@@H]2N1C(=O)[C@@H](N)C12CC3CC(CC(O)(C3)C1)C2 [IV-S, saxagliptin hydrochloride]
Crystal form stability (transformation to saxagliptin hydrochloride dihydrate H2-1) ([4]; hydrochloride): not very stable

Molecule: N#C[C@@H]1C[C@@H]2C[C@@H]2N1C(=O)[C@@H](N)C12CC3CC(CC(O)(C3)C1)C2 [Form H0.75-3, saxagliptin hydrochloride]
Crystal form stability (transformation to saxagliptin hydrochloride dihydrate H2-1) ([4]; hydrochloride): transforms to saxagliptin hydrochloride dihydrate H2-1

Solubility in water (in words, description) [3]: soluble in water | Solubility in water ([3]; 20 vol. in water at room temperature (20-25° C.)): soluble | Stability in water (reprecipitation) ([3]; 20 vol. in water at room temperature, after 24 h): reprecipitation was not observed | Degradation rate / stability compared with free base H-1 and hydrochloride H2-1 [2]: much lower | Δ variation amidine Impurity % (HPLC-MS), impurity (A) ([2]; 16 h (Table 6)): 0.08% (A) | Δ variation amidine Impurity % (HPLC-MS), impurity (A) ([2]; 168 h (Table 6)): 0.38% (A) | Δ variation amidine Impurity % (HPLC-MS), impurity (A) ([2]; 184 h (Table 6)): 0.40% (A) | Color of the solid form after storage [2]: remained white
Molecule: saxagliptin HCl.saxagliptin cocrystal (1:1) hydrate [Form I]
Crystalline transformation (XRPD) [1]: No crystalline transformations were observed

Molecule: Cl.N#C[C@@H]1C[C@@H]2C[C@@H]2N1C(=O)[C@@H](N)C12CC3CC(CC(O)(C3)C1)C2.NC(N)=O.NC(N)=O.NC(N)=O [Form IV, saxagliptin HCl.urea cocrystal (1:3)]
Solubility in water (in words, description) [3]: very soluble in water | Solubility in water compared with saxagliptin HCl dihydrate H2-1 [3]: more soluble | Solubility in water: volumes of water in which the form is soluble [3]: approximately 2.5 volumes of water

Solubility in water (in words, description) [3]: soluble in water | Solubility in water compared with saxagliptin HCl dihydrate H2-1 [3]: solubility similar | Solubility in water: volumes of water in which the form is soluble [3]: approximately 4 volumes of water
Molecule: saxagliptin HCl.malonic acid cocrystal (3:2) hydrate [Form III]

Molecule: Cl.N#C[C@@H]1C[C@@H]2C[C@@H]2N1C(=O)[C@@H](N)C12CC3CC(CC(O)(C3)C1)C2.O.O=C(O)CO [Form II, saxagliptin HCl glycolic acid cocrystal (1:1) monohydrate]
Solubility in water (in words, description) [3]: quite soluble in water | Solubility in water compared with saxagliptin HCl dihydrate H2-1 [3]: same solubility | Solubility in water: volumes of water in which the form is soluble [3]: 5 volumes of water
